Measured values taken from patent publication US12396459B2, “Synergistically effective herbicide composition comprising pyridate and at least one defined 4-HPPD inhibitor” (BELCHIM CROP PROTECTION NV, priority 2018, dated 2025).

Tests used:
Format in all cases: in vivo
Solanum nigrum = test: Examples 6-8 herbicidal effect: SOLNI; settings: 7 DAA
Echinochloa crus-galli = test: Examples 6-8 herbicidal effect: ECHCG; settings: 7 DAA
Chenopodium album [1] = test: Examples 6-8 herbicidal effect: CHEAL; settings: 7 DAA
Veronica persica = test: Examples 6-8 herbicidal effect: VERPE; settings: 7 DAA
Poa annua = test: Examples 6-8 herbicidal effect: POAAN; settings: 7 DAA
Matricaria chamomilla = test: Examples 6-8 herbicidal effect: MATCH; settings: 7 DAA
Geranium dissectum = test: Examples 6-8 herbicidal effect: GERDI; settings: 7 DAA
Digitaria sanguinalis = test: Examples 6-8 herbicidal effect: DIGSA; settings: 7 DAA
Setaria verticillata = test: Examples 6-8 herbicidal effect: SETVE; settings: 7 DAA
Chenopodium album [2] = test: Field trial post-emergence in maize: CHEAL; settings: 13-14 DAA, # = 1
Description: (§1) Herbicidal activity of herbicide compositions according to the first aspect of the present invention with regard to different types of unwanted vegetation was determined during trials performed on test fields (field trials). Individual compositions comprising pyridate and individual compositions comprising a defined 4-HPPD inhibitor are compared with a herbicide composition according to the invention comprising both pyridate and a defined 4-HPPD inhibitor. The expected activity of the combination of the active compounds pyridate and a defined 4-HPPD inhibitor is calculated according to above mentioned calculation method by Colby, in order to evaluate a synergistic effect between pyridate and a defined 4-HPPD inhibitor.
(§2) Herbicidal activity was determined by applying herbicide compositions on emerged unwanted vegetation on fields where maize was cultivated. Pyridate and a defined 4-HPPD inhibitor were applied as a tank mixture by mixing these active compounds prior to use in a spray tank. The corresponding mixture was in the form of a spray liquor. Besides, spray liquors of individual compositions comprising pyridate and of individual compositions comprising a defined 4-HPPD inhibitor were used. Test plants of unwanted vegetation with a growth stage corresponding to BBCH 10-18 (according to the extended BBCH-scale) were sprayed with the active compound preparations such that particular desired amounts of active compounds are applied per unit area. Spray liquor was diluted with water to arrive at an application volume of 50 to 450 L/ha. At a specified number of days after application (DAA), the degree of damage to the unwanted vegetation is rated in % of plants of unwanted vegetation that were killed, which was assessed by visually controlling the plants.

Bassia scoparia = test: Field trial post-emergence in maize: KCHSC; settings: 13-14 DAA; # = 2; g a.c./ha: PYR 450, TEM 38, PYR + TEM 450 + 38
Description: as §1
(§3) Herbicidal activity was determined by applying herbicide compositions on emerged unwanted vegetation on fields where maize was cultivated. Pyridate and a defined 4-HPPD inhibitor were applied as a tank mixture by mixing these active compounds prior to use in a spray tank. The corresponding mixture was in the form of a spray liquor. […] At a specified number of days after application (DAA), the degree of damage to the unwanted vegetation is rated in % of plants of unwanted vegetation that were killed, which was assessed by visually controlling the plants.

Lamium amplexicaule = test: Example 6 herbicidal effect: LAMAM; settings: 7 DAA
Sinapis arvensis = test: Field trial post-emergence in maize: SINAR; settings: 13-14 DAA; # = 1; g a.c./ha: PYR 450, TOP 12.4, PYR + TOP 450 + 12.4
Description: as §1, §3

[3] = test system: Brassica rapa Canola cultivars; test: Field trial post-emergence in maize: BRSRC; settings: 13-14 DAA; # = 1; g a.c./ha: PYR 450, TOP 12.4, PYR + TOP 450 + 12.4
Description: as §1, §2

Amaranthus retroflexus = test: Field trial post-emergence in maize: AMARE; settings: 13-14 DAA; # = 1; g a.c./ha: PYR 450, TOP 12.4, PYR + TOP 450 + 12.4
Description: as §1, §2

[4] = g a.c./ha: PYR 300, SCT 300, PYR + SCT 300 + 300
[5] = g a.c./ha: PYR 450, SCT 450, PYR + SCT 300 + 450
[6] = g a.c./ha: SMO 800, PYR + NIC 300 + 30
[7] = g a.c./ha: PYR 10, TEM 22, PYR + TEM 10 + 100
[8] = g a.c./ha: PYR 300, TEM 100, PYR + TEM 300 + 100
[9] = g a.c./ha: PYR 900, TEM 44, PYR + TEM 900 + 44

## COc1cc(OC)nc(NC(=O)NS(=O)(=O)c2ncccc2C(=O)N(C)C)n1 [NIC, nicosulfuron]
Solanum nigrum; NIC 30 g a.c./ha
  herbicidal effect (h.e.): 17%
Echinochloa crus-galli; NIC 30 g a.c./ha
  herbicidal effect (h.e.): 38%
Chenopodium album [1]; NIC 30 g a.c./ha
  herbicidal effect (h.e.): 24%
Veronica persica; NIC 30 g a.c./ha
  herbicidal effect (h.e.): 7%
Poa annua; NIC 30 g a.c./ha
  herbicidal effect (h.e.): 75%
Matricaria chamomilla; NIC 30 g a.c./ha
  herbicidal effect (h.e.): 6%
Geranium dissectum; NIC 30 g a.c./ha
  herbicidal effect (h.e.): 33%
Digitaria sanguinalis; NIC 30 g a.c./ha
  herbicidal effect (h.e.): 32%
Setaria verticillata; NIC 30 g a.c./ha
  herbicidal effect (h.e.): 37%

## CS(=O)(=O)c1ccc(C(=O)C2C(=O)CCCC2=O)c(Cl)c1 [SCT, 2-[2-Chloro-4-(methylsulfonyl)benzoyl]cyclohexane-1,3-dione]
Solanum nigrum; [4]
  herbicidal effect (h.e.): 53%
Solanum nigrum; [5]
  herbicidal effect (h.e.): 53%
Echinochloa crus-galli; [4]
  herbicidal effect (h.e.): 58%
Echinochloa crus-galli; [5]
  herbicidal effect (h.e.): 60%
Chenopodium album [1]; [4]
  herbicidal effect (h.e.): 30%
Chenopodium album [1]; [5]
  herbicidal effect (h.e.): 45%
Veronica persica; [4]
  herbicidal effect (h.e.): 83%
Veronica persica; [5]
  herbicidal effect (h.e.): 80%
Poa annua; [4]
  herbicidal effect (h.e.): 3%
Poa annua; [5]
  herbicidal effect (h.e.): 3%
Matricaria chamomilla; [4]
  herbicidal effect (h.e.): 28%
Matricaria chamomilla; [5]
  herbicidal effect (h.e.): 25%
Geranium dissectum; [4]
  herbicidal effect (h.e.): 28%
Geranium dissectum; [5]
  herbicidal effect (h.e.): 50%
Digitaria sanguinalis; [4]
  herbicidal effect (h.e.): 60%
Digitaria sanguinalis; [5]
  herbicidal effect (h.e.): 53%
Setaria verticillata; [4]
  herbicidal effect (h.e.): 2%
Setaria verticillata; [5]
  herbicidal effect (h.e.): 2%

## CCc1cccc(C)c1N(C(=O)CCl)[C@@H](C)COC [SMO, S-metolachlor]
Solanum nigrum; [6]
  herbicidal effect (h.e.): 3%
Echinochloa crus-galli; [6]
  herbicidal effect (h.e.): 0%
Chenopodium album [1]; [6]
  herbicidal effect (h.e.): 1%
Veronica persica; [6]
  herbicidal effect (h.e.): 5%
Poa annua; [6]
  herbicidal effect (h.e.): 0%
Matricaria chamomilla; [6]
  herbicidal effect (h.e.): 0%
Geranium dissectum; [6]
  herbicidal effect (h.e.): 0%
Digitaria sanguinalis; [6]
  herbicidal effect (h.e.): 0%
Setaria verticillata; [6]
  herbicidal effect (h.e.): 0%

## CS(=O)(=O)c1ccc(C(=O)C2C(=O)CCCC2=O)c(Cl)c1COCC(F)(F)F [TEM, 2-[2-chloro-4-methylsulfonyl-3-(2,2,2-trifluoroethoxymethyl)benzoyl]cyclohexane-1,3-dione]
Solanum nigrum; [7]
  herbicidal effect (h.e.): 40%
Solanum nigrum; [8]
  herbicidal effect (h.e.): 80%
Solanum nigrum; [9]
  herbicidal effect (h.e.): 85%
Echinochloa crus-galli; [7]
  herbicidal effect (h.e.): 83%
Echinochloa crus-galli; [8]
  herbicidal effect (h.e.): 85%
Echinochloa crus-galli; [9]
  herbicidal effect (h.e.): 95%
Chenopodium album [2]; g a.c./ha: PYR 450, TEM 38, PYR + TEM 450 + 38
  herbicidal effect (h.e.): 0%
Bassia scoparia
  herbicidal effect (h.e.): 40%
Chenopodium album [1]; [7]
  herbicidal effect (h.e.): 68%
Chenopodium album [1]; [8]
  herbicidal effect (h.e.): 78%
Chenopodium album [1]; [9]
  herbicidal effect (h.e.): 96%
Veronica persica; [7]
  herbicidal effect (h.e.): 8%
Veronica persica; [8]
  herbicidal effect (h.e.): 53%
Veronica persica; [9]
  herbicidal effect (h.e.): 53%
Poa annua; [7]
  herbicidal effect (h.e.): 10%
Poa annua; [8]
  herbicidal effect (h.e.): 32%
Poa annua; [9]
  herbicidal effect (h.e.): 13%
Matricaria chamomilla; [7]
  herbicidal effect (h.e.): 15%
Matricaria chamomilla; [8]
  herbicidal effect (h.e.): 100%
Matricaria chamomilla; [9]
  herbicidal effect (h.e.): 70%
Geranium dissectum; [7]
  herbicidal effect (h.e.): 8%
Geranium dissectum; [8]
  herbicidal effect (h.e.): 33%
Geranium dissectum; [9]
  herbicidal effect (h.e.): 20%
Digitaria sanguinalis; [7]
  herbicidal effect (h.e.): 59%
Digitaria sanguinalis; [8]
  herbicidal effect (h.e.): 99%
Digitaria sanguinalis; [9]
  herbicidal effect (h.e.): 95%
Lamium amplexicaule; [7]
  herbicidal effect (h.e.): 25%
Lamium amplexicaule; [8]
  herbicidal effect (h.e.): 40%
Lamium amplexicaule; [9]
  herbicidal effect (h.e.): 100%
Setaria verticillata; [7]
  herbicidal effect (h.e.): 0%
Setaria verticillata; [8]
  herbicidal effect (h.e.): 100%
Setaria verticillata; [9]
  herbicidal effect (h.e.): 18%

## Cc1c(C(=O)c2c[nH]n(C)c2=O)ccc(S(C)(=O)=O)c1C1=NOCC1 [TOP, 4-[3-(4,5-dihydro-1,2-oxazol-3-yl)-2-methyl-4-methylsulfonylbenzoyl]-2-methyl-1H-pyrazol-3-one]
Sinapis arvensis
  herbicidal effect (h.e.): 50%
Chenopodium album [2]; g a.c./ha: PYR 450, TOP 12.4, PYR + TOP 450 + 12.4
  herbicidal effect (h.e.): 1%
[3]
  herbicidal effect (h.e.): 50%
Amaranthus retroflexus
  herbicidal effect (h.e.): 18%
